Data taken from paper PMC8003416, “Modulation of Human Phenylalanine Hydroxylase by 3-Hydroxyquinolin-2(1H)-One Derivatives” (Biomolecules, 2021).
Like-named read-outs stand apart in the source and are kept apart here.

Columns and labels:
[1] = biological target: T1, human phenylalanine hydroxylase (hPAH) (Homo sapiens, UniProt P00439); test: Surface plasmon resonance, immobilized hPAH; format: binding; details: for KD (steady-state affinity constant) / Kd: 25 °C, 3HQs up to 200 μM, no saturation (lower limits); for Kd: read-out: KD (steady-state affinity constant)
T1 construct: Recombinant full-length wild-type (WT) hPAH was expressed in E. coli Top10 cells in fusion with a hexa-histidyl peptide; made in house; host or cells: E. coli Top10
T1 sequence (P00439 1-452): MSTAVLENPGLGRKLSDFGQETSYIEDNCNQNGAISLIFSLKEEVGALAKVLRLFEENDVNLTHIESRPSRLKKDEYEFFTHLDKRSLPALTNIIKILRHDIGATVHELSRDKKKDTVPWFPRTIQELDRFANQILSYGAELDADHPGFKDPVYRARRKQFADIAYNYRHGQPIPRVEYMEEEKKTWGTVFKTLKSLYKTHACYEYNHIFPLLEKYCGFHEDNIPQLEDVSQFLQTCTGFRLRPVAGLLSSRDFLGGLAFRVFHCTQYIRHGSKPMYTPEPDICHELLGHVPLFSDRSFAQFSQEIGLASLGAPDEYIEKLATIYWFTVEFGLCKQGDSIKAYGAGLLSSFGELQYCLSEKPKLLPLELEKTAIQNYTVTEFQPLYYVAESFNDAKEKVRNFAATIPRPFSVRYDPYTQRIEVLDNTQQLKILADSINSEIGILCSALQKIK
Procedure: The affinity of hPAH for 3HQs was evaluated by surface plasmon resonance (SPR) using a Biacore 4000 (GE Healthcare) instrument. All assays were carried out at 25 °C. Optimization of hPAH immobilization on a carboxymethylated dextran (CM5) matrix of the sensor chip was initiated by performing a pH scouting, using as buffers 10 mM sodium acetate (pH 5.0, 5.2, 5.5 and 5.8), 10 mM Bis-Tris (pH 6.0, 6.2 and 6.5), and 10 mM sodium phosphate (pH 7.0). hPAH was diluted to 10 µg/mL in the best immobilization buffer (10 mM sodium acetate pH 5.5) and immobilized onto the CM5 sensor chip using the standard amine coupling procedure. The HBS-N buffer, consisting of 10 mM HEPES pH 7.4 and 150 mM NaCl, was used as background buffer. Prior to immobilization, the carboxymethylated surface of the chip was activated with a 1:1 ratio of 400 mM 1-ethyl-3-(3-dimethylaminopropyl)-carbodiimide and 100 mM N-hydroxysuccinimide for 10 min. The hPAH was coupled to the surface with a 1 to 2 min injection time at a flow rate of 10 μL/min in order to reach 2000 to 5000 RU. The remaining activated carboxymethylated groups were blocked with a 7 min injection of 1 M ethanolamine pH 8.5.
The 3HQs were directly diluted in running buffer (10 mM HEPES, 150 mM NaCl, 5 mM MgCl2, 0.1 mM EDTA, 0.05% (v/v) Tween-20, 1 mM DTT, pH 7.2, and 2% DMSO) and injected at ten different concentrations using two-fold dilutions series, from 200 µM to ≈ 0.4 μM. The interaction between hPAH and L-Phe in the ≈ 2–1000 μM range was also analyzed, for comparison with literature values. Moreover, L-Phe (at 1 mM) was used as a positive control to collect information on surface integrity and activity throughout the experiment. For competition experiments, 1 mM L-Phe was added to the running buffer. All sensorgrams were processed by first subtracting the binding response recorded from the control surface (reference spot), followed by subtracting an average of the buffer blank injections from the reaction spot. Interactions were assessed from the obtained plots of steady-state SPR response levels against 3HQs concentration, employing the provided Biacore 4000 evaluation software.

[2] = biological target: T1, human phenylalanine hydroxylase (hPAH); test: hPAH enzymatic activity assay (NA, 3HQ-A and Phe/3HQ-A conditions); format: biochemical; details: 100 μM compound; for remaining activity at 100 µM: read-out: hPAH residual activity vs control
Procedure: The hPAH activity was measured essentially as previously described. Briefly, the enzymatic reaction was performed in a 200 μL final volume, containing 250 mM Na-HEPES, pH 7, 0.1 mg/mL catalase (Sigma-Aldrich; St. Louis, MO, USA), 5 μg (final concentration of 0.112 μM of tetramer) of recombinant hPAH tetramers and 100 μM (NH4)2Fe(II)SO4. Using 100 μM L-Phe and 100 μM of tested compound, three experimental conditions were used to study the compounds’ modulatory effect, namely: non activated (NA), 3HQ-activated (3HQ-A) and substrate/3HQ-activated (Phe/3HQ-A) (Supplementary Figure S3). The reaction was started by addition of 75 μM BH4 (Schircks Laboratories; Bauma, Switzerland) prepared in 5 mM ascorbic acid. In the NA assay, the L-Phe substrate and tested compounds were added together with 75 µM BH4 at the start of the hydroxylation reaction. In the 3HQ-A condition, hPAH was pre-incubated with the tested compound for 4 min at 25 °C and the reaction was started by the addition of BH4 together with L-Phe. In the Phe/3HQ-A condition, hPAH was pre-incubated simultaneously with L-Phe and the tested compound (4 min, 25 °C). Appropriate control reactions were performed where the compounds were omitted and 1% DMSO was used. Kinetic parameters were determined using variable concentrations of L-Phe (25 to 2500 μM) and fixed concentrations of BH4 (75 μM) and tested compound (100 μM). After a 1-min incubation, the reaction was stopped, and the amount of L-Tyr produced was quantified by HPLC as previously described. The specific hPAH enzymatic activity is expressed as nmol of L-Tyr produced during 1 min per mg of protein (nmol L-Tyr.min^−1.mg^−1). The steady-state kinetic data were analyzed by nonlinear regression analysis using GraphPad Prism (La Jolla, CA, USA). Data was fitted to the modified Hill equation accounting for cooperative substrate binding as well as substrate inhibition (Equation (1)), to the modified Michaelis–Menten equation which accounts for substrate inhibition (Equation (2)) and to the non-modified Michaelis–Menten equation:v = (Vmax + Vi ([S]^x/Ki^x))/(1 + (K^h/[S]^h) + ([S]^x/Ki^x))(1) v = (Vmax [S])/(Km + [S](1 + [S]/Ki))(2)

[3] = biological target: T2, hPAH non-heme ferric center (Homo sapiens, UniProt P00439); test: Electron paramagnetic resonance spectroscopy; details: ≈100 μM hPAH monomer, equimolar 3HQ, 4K
T2 construct: Recombinant full-length wild-type (WT) hPAH was expressed in E. coli Top10 cells in fusion with a hexa-histidyl peptide; made in house; host or cells: E. coli Top10
T2 sequence (P00439 1-452): T1 sequence (P00439 1-452)
Procedure: EPR spectra of hPAH (at ≈100 μM monomer) in the absence or presence of equimolar amounts of 3HQs were recorded at 4K in a Bruker EMX spectrometer (Billerica, MA, USA) equipped with an ESR-900 continuous flow helium cryostat from Oxford Instruments (Abingdon, Johnson, UK). Spectra were recorded for control samples containing 100 μM FeCl3 solutions incubated with equimolar amounts of 3HQs to evaluate direct binding of the compounds to free Fe^3+ in solution. Microwave frequency: 9.39 GHz; microwave power, 2 mW; modulation amplitude, 1 mT.

Row | SMILES | Kd [1] | ΔRU reduction in the presence of L-Phe ([1]; 1 mM L-Phe in running buffer) | remaining activity at 100 µM ([2]; 3HQ-A condition (4 min pre-incubation with compound, 25 °C)) | hPAH activity, fold increase vs control ([2]; NA (non-activated) condition, 100 μM L-Phe, 1% DMSO control) | remaining activity at 100 µM ([2]; Phe/3HQ-A condition (pre-incubation with L-Phe and compound)) | KD (steady-state affinity constant) [1] | fold enzyme activation by compound (3HQ-A vs. NA) [2] | fold activation by L-Phe (Phe/3HQ-A vs. 3HQ-A) ([2]; 100 μM L-Phe) | change of hPAH EPR spectrum [3] | remaining activity at 100 µM ([2]; NA (non-activated) condition)
1 | COC(=O)CNC(=O)c1c(O)c(=O)[nH]c2ccc(OC(F)(F)F)cc12 [Compound 11] | – | – | – | – | – | at least mM affinity | 1.6 fold | 1.5 fold | less rhombic EPR signals appeared | –
2 | COC(=O)CC[C@H](NC(=O)c1c(O)c(=O)[nH]c2ccc(OC(F)(F)F)cc12)C(=O)OC [Compound 9] | – | – | – | – | – | at least mM affinity | – | 1.4 fold | less rhombic EPR signals appeared | 58%
3 | N[C@@H](Cc1ccccc1)C(=O)O [L-Phe, L-phenylalanine, reference compound] | 47 ± 8 µM | – | – | – | – | – | – | – | – | –

The next lines start with results.

Row | Kd [1] | ΔRU reduction in the presence of L-Phe ([1]; 1 mM L-Phe in running buffer) | remaining activity at 100 µM ([2]; 3HQ-A condition (4 min pre-incubation with compound, 25 °C)) | hPAH activity, fold increase vs control ([2]; NA (non-activated) condition, 100 μM L-Phe, 1% DMSO control) | remaining activity at 100 µM ([2]; Phe/3HQ-A condition (pre-incubation with L-Phe and compound)) | SMILES | KD (steady-state affinity constant) [1] | fold enzyme activation by compound (3HQ-A vs. NA) [2] | fold activation by L-Phe (Phe/3HQ-A vs. 3HQ-A) ([2]; 100 μM L-Phe) | change of hPAH EPR spectrum [3] | remaining activity at 100 µM ([2]; NA (non-activated) condition)
4 | ≥ 200 µM | – | – | – | – | O=C(NCCc1ccccc1)c1c(O)c(=O)[nH]c2ccc(OC(F)(F)F)cc12 [Compound 8] | – | – | 1.7 fold | less rhombic EPR signals appeared | –
5 | ≥ 121 µM | > 50% | 69% | 1.1 fold | 57% | CCOC(=O)[C@H](Cc1ccccc1)NC(=O)c1c(O)c(=O)[nH]c2ccc(OC(F)(F)F)cc12 [Compound 3] | – | – | 1.3 fold | significant increase in the intensity of this main band at g = 4.25 | –
